Assay results taken from US10323022B2, “Pyrrolidinyl urea, pyrrolidinyl thiourea and pyrrolidinyl guanidine compounds as TrkA kinase inhibitors” (Array BioPharma Inc., priority 2011, dated 2019).

target: TrkA (Homo sapiens (Human), UniProt P04629); experiment: TrkA Omnia Assay; assay type: biochemical; settings: averaged IC50; 20 nM enzyme, 500 μM ATP, 10 μM peptide substrate
How it was run: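 Continuous fluorescent kinase read-out (ex 360 nm, em 485 nm) over 70 min, with initial rates fitted to 4- or 5-parameter logistic curves for IC50. Final conditions: 500 μM ATP, 10 μM Omnia Tyr Peptide #4, 20 nM TrkA, MOPS pH 7.5 buffer with MgCl2 and Triton X-100; enzyme and compound preincubated 10 min at ambient temperature.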

Sequence of TrkA (P04629 33-796): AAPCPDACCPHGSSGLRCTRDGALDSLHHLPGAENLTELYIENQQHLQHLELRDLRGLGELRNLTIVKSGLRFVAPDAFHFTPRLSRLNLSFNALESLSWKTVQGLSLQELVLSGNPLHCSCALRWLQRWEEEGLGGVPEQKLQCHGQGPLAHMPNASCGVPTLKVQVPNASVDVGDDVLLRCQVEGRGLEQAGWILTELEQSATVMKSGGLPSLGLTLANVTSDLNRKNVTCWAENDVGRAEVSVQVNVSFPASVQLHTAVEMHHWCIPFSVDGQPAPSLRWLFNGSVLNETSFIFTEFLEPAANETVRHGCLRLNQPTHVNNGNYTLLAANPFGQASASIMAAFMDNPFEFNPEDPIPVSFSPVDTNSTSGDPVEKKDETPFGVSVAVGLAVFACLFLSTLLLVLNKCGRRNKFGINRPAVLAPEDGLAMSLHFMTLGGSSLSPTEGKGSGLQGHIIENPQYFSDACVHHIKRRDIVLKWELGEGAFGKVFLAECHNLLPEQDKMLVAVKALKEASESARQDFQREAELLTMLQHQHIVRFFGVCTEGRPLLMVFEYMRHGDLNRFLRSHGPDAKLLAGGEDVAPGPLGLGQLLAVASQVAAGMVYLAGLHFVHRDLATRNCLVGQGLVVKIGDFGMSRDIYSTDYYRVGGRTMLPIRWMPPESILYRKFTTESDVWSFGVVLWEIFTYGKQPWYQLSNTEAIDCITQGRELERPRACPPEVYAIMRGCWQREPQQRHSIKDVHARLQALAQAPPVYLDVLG

IC50, < 0.1 µM:
COCCN1C[C@@H](NC(=O)Nc2c(C(F)(F)F)c(OC)nn2-c2ccccc2)[C@H](c2ccc(F)cc2)C1 [Example 607, 1-((3S,4R)-4-(4-fluorophenyl)-1-(2-methoxyethyl)pyrrolidin-3-yl)-3-(3-methoxy-1-phenyl-4-(trifluoromethyl)-1H-pyrazol-5-yl)urea]
COCCN1C[C@@H](NC(=O)Nc2c(C)c(-c3cn(C)cn3)nn2-c2ccccc2)[C@H](c2ccc(F)c(F)c2)C1 [Example 608, 1-((3S,4R)-4-(3,4-difluorophenyl)-1-(2-methoxyethyl)pyrrolidin-3-yl)-3-(4-methyl-3-(1-methyl-1H-imidazol-4-yl)-1-phenyl-1H-pyrazol-5-yl)urea]
COCCN1C[C@@H](NC(=O)Nc2c(C)c(=O)[nH]n2-c2ccccc2)[C@H](c2cc(F)cc(F)c2)C1 [Example 611, 1-((3S,4R)-4-(3,5-difluorophenyl)-1-(2-methoxyethyl)pyrrolidin-3-yl)-3-(4-methyl-5-oxo-2-phenyl-2,5-dihydro-1H-pyrazol-3-yl)urea]
COCCN1C[C@@H](NC(=O)Nc2c(C)c(=O)[nH]n2-c2ccccc2)[C@H](c2cc(F)c(F)c(F)c2)C1 [Example 612, 1-((3S,4R)-1-(2-methoxyethyl)-4-(3,4,5-trifluorophenyl)pyrrolidin-3-yl)-3-(4-methyl-5-oxo-2-phenyl-2,5-dihydro-1H-pyrazol-3-yl)urea]
COCCN1C[C@@H](NC(=O)Nc2c(C)c(=O)[nH]n2-c2ccccc2)[C@H](c2cccc(F)c2)C1 [Example 613, 1-((3S,4R)-4-(3-fluorophenyl)-1-(2-methoxyethyl)pyrrolidin-3-yl)-3-(4-methyl-5-oxo-2-phenyl-2,5-dihydro-1H-pyrazol-3-yl)urea]
COCCN1C[C@@H](NC(=O)Nc2c(C#N)c(OC)nn2-c2ccccc2)[C@H](c2ccc(F)c(F)c2)C1 [Example 615, 1-(4-cyano-3-methoxy-1-phenyl-1H-pyrazol-5-yl)-3-((3S,4R)-4-(3,4-difluorophenyl)-1-(2-methoxyethyl)pyrrolidin-3-yl)urea]
CCc1nn(-c2ccccc2)c(NC(=O)N[C@@H]2CN(CCOC)C[C@H]2c2ccc(F)c(F)c2)c1C#N [Example 616, 1-(4-cyano-3-ethyl-1-phenyl-1H-pyrazol-5-yl)-3-((3S,4R)-4-(3,4-difluorophenyl)-1-(2-methoxyethyl)pyrrolidin-3-yl)urea.]
COCCN1C[C@@H](NC(=O)Nc2c(C#N)c(C(F)(F)F)nn2-c2ccccc2)[C@H](c2ccc(F)c(F)c2)C1 [Example 617, 1-(4-cyano-1-phenyl-3-(trifluoromethyl)-1H-pyrazol-5-yl)-3-((3S,4R)-4-(3,4-difluorophenyl)-1-(2-methoxyethyl)pyrrolidin-3-yl)urea]
COCCN1C[C@@H](NC(=O)Nc2c(C#N)c(=O)[nH]n2-c2ccccc2)[C@H](c2ccc(F)c(F)c2)C1 [Example 618, 1-(4-cyano-5-oxo-2-phenyl-2,5-dihydro-1H-pyrazol-3-yl)-3-((3S,4R)-4-(3,4-difluorophenyl)-1-(2-methoxyethyl)pyrrolidin-3-yl)urea]
COCCN1C[C@@H](NC(=O)Nc2c(C(N)=O)c(OC)nn2-c2ccccc2)[C@H](c2ccc(F)c(F)c2)C1 [Example 619, 5-(3-((3S,4R)-4-(3,4-difluorophenyl)-1-(2-methoxyethyl)pyrrolidin-3-yl)ureido)-3-methoxy-1-phenyl-1H-pyrazole-4-carboxamide]
COCCN1C[C@@H](NC(=O)Nc2c(C(N)=O)c(C)nn2-c2ccccc2)[C@H](c2ccc(F)c(F)c2)C1 [Example 620, 5-(3-((3S,4R)-4-(3,4-difluoro-phenyl)-1-(2-methoxyethyl)pyrrolidin-3-yl)ureido)-3-methyl-1-phenyl-1H-pyrazole-4-carboxamide]
